# Experimental data from patent US20060025474A1, “Bisphenyl compounds useful as vitamin D3 receptor agonists” (priority 2004, published 2006).
# Test system: ECAC2 mRNA in Caco-2 cells
# Assay type: cell-based
# Description: The mRNA Expression Assay of ECAC2 in Caco-2 Cells
# The dispersed cells were plated in 48-well plate at a concentration of 6.3×10^4 cells/well and incubated for 4 days at 37° C. The culture medium (Dulbecco's Modified Eagle Medium (D-MEM) without NaHCO3 with 44 mM NaHCO3, 1 mM non-essential amino acids, and 2 mM L-glutamine, 90%; fetal bovine serum, 10%) was then replaced with the same medium containing various concentrations of LG190178 (the compound disclosed in WO00/10958 and the corresponding U.S. Pat. No. 6,218,430 B1) or the compounds of the present invention, and cells were cultured for 1 day at 37° C. The culture medium containing the compounds was changed twice per day.
# Total RNA Isolation from Caco-2 Cell
# Total RNA was isolated from Caco-2 cell following ABI PRISM™ 6100 Nucleic Acid PrepStation protocol from Applied Biosystems.
# Real Time RT-PCR Assay of ECAC2
# ECAC2 mRNA expression was determined using TaqMan One-step RT-PCR Master Mix Reagents Kit and PRISM7000 systems from Applied Biosystems.
# Primer information and cycle conditions are 1)ECAC2, forward 5′-[…]-3′, reverse 5′-GTCCTCTGTCTGGMGATGA-3′, Taqman probe 5′-[…]-3′, 55 cycles, annealing temperature (Ta)=60° C.; 2)GAPDH, forward 5′-GMGGTGMGGTCGGAGTC-3′, reverse 5′-GMGATGGTGATGGGATTTC-3′, Taqman probe 5′-[…]-3′, 55 cycles, Ta=60° C. ECAC2 mRNA values were normalized for the expression of GAPDH mRNA within each sample.
# Comparison of ECAC2 mRNA Value
# The EC50 values of ECAC2 mRNA values were analyzed by Emax models. The ECAC2 mRNA ratio was calculated as the ratio of the EC50 value of the compounds to that of LG190178. ECAC2 is a channel-like transporter mediating intestinal calcium absorption. It is described in J Biol Chem. Aug. 6, 1999; 274(32):22739-46 for example.
row,SMILES,ECaC-2 mRNA induction activity in Caco-2 cells [%]
1,"CCC(CC)(c1ccc(C#CC(O)(C(F)(F)F)C(F)(F)F)c(C)c1)c1ccc(CCC(=O)O)c(C)c1 [Example 106, 3-(4-{1-ethyl-1-[3-methyl-4-(4,4,4-trifluoro-3-hydroxy-3-trifluoromethyl-but-1-ynyl)-phenyl]-propyl}-2-methyl-phenyl)-propionic acid]",399
2,"CCC(CC)(c1ccc(/C=C/C(O)(C(F)(F)F)C(F)(F)F)c(C)c1)c1ccc(CCC(=O)O)c(C)c1 [Example 107, 3-(4-{1-ethyl-1-[3-methyl-4-((E)-4,4,4-trifluoro-3-hydroxy-3-trifluoromethyl-but-1-enyl)-phenyl]-propyl}-2-methyl-phenyl)-propionic acid]",823
3,"CCC(CC)(c1ccc(/C=C/C(O)(C(F)(F)F)C(F)(F)F)c(C)c1)c1ccc(OCCCCc2nnn[nH]2)c(C)c1 [Example 115, (E)-4-[4-(1-ethyl-1-{3-methyl-4-[4-(1 H-tetrazol-5-yl)-butoxy]-phenyl}-propyl)-2-methyl-phenyl]-1,1,1-trifluoro-2-trifluoromethyl-but-3-en-2-ol]",91
4,"CCC(O)(/C=C/c1ccc(C(CC)(CC)c2ccc(OCCCCCN)c(C)c2)cc1C)CC [Example 119, (E)-1-(4-{1-[4-(5-Amino-pentyloxy)-3-methyl-phenyl]-1-ethyl-propyl}-2-methyl-phenyl)-3-ethyl-pent-1-en-3-ol]",12
5,"CCC(CC)(c1ccc(/C=C/C2(O)CCCC2)c(C)c1)c1ccc(OCCCCCN)c(C)c1 [Example 121, 1-[(E)-2-(4-{1-[4-(5-Amino-pentyloxy)-3-methyl-phenyl]-1-ethyl-propyl}-2-methyl-phenyl)-vinyl]-cyclopentanol]",75
6,"CCC(CC)(c1ccc(/C=C/C(O)(C(F)(F)F)C(F)(F)F)c(C)c1)c1ccc(OCCCCCN)c(C)c1 [Example 125, (E)4-(4-{1-[4-(5-Amino-pentyloxy)-3-methyl-phenyl]-1-ethyl-propyl}-2-methyl-phenyl)-1,1,1-trifluoro-2-trifluoromethyl-but-3-en-2-ol]",<10
7,"CCC(O)(/C=C/c1ccc(C(CC)(CC)c2ccc(OCc3ccc(C(=O)O)cc3)c(C)c2)cc1C)CC [Example 147, 4-(4-{I-Ethyl-1-[4-((E)-3-ethyl-3-hydroxy-pent-1-enyl)-3-methyl-phenyl]-propyl}-2-methyl-phenoxymethyl)-benzoic acid]",75
8,"CCC(CC)(c1ccc(C#CC(O)(C(F)(F)F)C(F)(F)F)c(C)c1)c1ccc(OC[C@H](O)CCCO)c(C)c1 [Example 152, (R)-5-(4-{1-Ethyl-1-[3-methyl-4-(4,4,4-trifluoro-3-hydroxy-3-trifluoromethyl-but-1-ynyl)-phenyl]-propyl}-2-methyl-phenoxy)-pentane-1,4-diol]",586
9,"CCC(CC)(c1ccc(C#CC(O)(C(F)(F)F)C(F)(F)F)c(C)c1)c1ccc(OC[C@@H](O)CCCO)c(C)c1 [Example 153, (S)-5-(4-{1-Ethyl-1-[3-methyl-4-(4,4,4-trifluoro-3-hydroxy-3-trifluoromethyl-but-1-ynyl)-phenyl]-propyl}-2-methyl-phenoxy)-pentane-1,4-diol]",1662
10,"CCC(CC)(c1ccc(/C=C/C(O)(C(F)(F)F)C(F)(F)F)c(C)c1)c1ccc(OC[C@H](O)CCCO)c(C)c1 [Example 154, (R)-5-(4-{1-Ethyl-1-[3-methyl4-((E)-4,4,4-trifluoro-3-hydroxy-3-trifluoromethyl-but-1-enyl)-phenyl]-propyl}-2-methyl-phenoxy)-pentane-1,4-diol]",1784
11,"CCC(CC)(c1ccc(/C=C/C(O)(C(F)(F)F)C(F)(F)F)c(C)c1)c1ccc(OC[C@H]2CCCO2)c(C)c1 [Example 155, (E)4-[4-(1-Ethyl-1-{3-methyl4-[(R)-1-(tetrahydro-furan-2-yl)methoxy]-phenyl}-propyl)-2-methyl-phenyl]-11,11-trifluoro-2-trifluoromethyl-but-3-en-2-ol]",86
12,"CCC(CC)(c1ccc(/C=C/C(O)(C(F)(F)F)C(F)(F)F)c(C)c1)c1ccc(OC[C@@H](O)CCCO)c(C)c1 [Example 156, (S)-5-(4-{1-Ethyl-1-[3-methyl4-((E)4,4,4-trifluoro-3-hydroxy-3-trifluoromethyl-but-1-enyl)-phenyl]-propyl}-2-methyl-phenoxy)-pentane-1,4-diol]",4760
13,"CCC(CC)(c1ccc(/C=C/C(O)(C(F)(F)F)C(F)(F)F)c(C)c1)c1ccc(OC[C@@H]2CCCO2)c(C)c1 [Example 157, (E)4-[4-(1-Ethyl-1-{3-methyl-4-[(S)-1-(tetrahydro-furan-2-yl)methoxy]-phenyl}-propyl)-2-methyl-phenyl]-1,1,1-trifluoro-2-trifluoromethyl-but-3-en-2-ol]",1647
14,"CCC(O)(/C=C/c1ccc(C(CC)(CC)c2ccc(OC[C@@H](O)CCC(=O)O)cc2)cc1C)CC [Example 165, (S)-5-(4-{1-Ethyl-1-[4-((E)-3-ethyl-3-hydroxy-pent-1-enyl)-3-methyl-phenyl]-propyl}-phenoxy)4-hydroxy-pentanoic acid]",2017
15,"CCC(O)(/C=C/c1ccc(C(CC)(CC)c2cc(C)c(OC[C@@H]3CCC(=O)O3)c(C)c2)cc1C)CC [Example 166, (S)-5-(4-{1-Ethyl-1-[4-((E)-3-ethyl-3-hydroxy-pent-1-enyl)-3-methyl-phenyl]-propyl}-2,6-dimethyl-phenoxymethyl)-dihydro-furan-2-one]",86
16,"CCC(O)(/C=C/c1ccc(C(CC)(CC)c2cc(C)c(OC[C@@H](O)CCC(=O)O)c(C)c2)cc1C)CC [Example 167, (S)-5-(4-{1-Ethyl-1-[4-((E)-3-ethyl-3-hydroxy-pent-1-enyl)-3-methyl-phenyl]-propyl}-2,6-dimethyl-phenoxy)-4-hydroxy-pentanoic acid]",323
17,"CCCc1cc(C(CC)(CC)c2ccc(OC[C@@H](O)CCC(=O)O)c(C)c2)ccc1/C=C/C(O)(CC)CC [Example 170, (S)-5-(4-{1-Ethyl-1-[4-((E)-3-ethyl-3-hydroxy-pent-1-enyl)-3-propyl-phenyl]-propyl}-2-methyl-phenoxy)4-hydroxy-pentanoic acid]",191
18,"CCC(CC)(c1ccc(CCC(O)C(C)(C)C)c(C)c1)c1ccc(OC[C@@H](O)CCCC(=O)O)c(C)c1 (stereo partly drawn) [Example 186, 6-(4-{1-Ethyl-1-[4-(3-hydroxy-4,4-dimethyl-pentyl)-3-methyl-phenyl]-propyl}-2-methyl-phenoxy)-5(S)-hydroxy-hexanoic acid]",57
19,"CCC(CC)(c1ccc(CCC(O)C(C)(C)C)c(C)c1)c1ccc(OC[C@@H](O)CCCC(=O)O)c(C)c1 (stereo partly drawn) [Example 187, 6-(4-{1-Ethyl-1-[4-(3-hydroxy-4,4-dimethyl-pentyl)-3-methyl-phenyl]-propyl}-2-methyl-phenoxy)-5(S)-hydroxy-hexanoic acid]",545
20,"CCC(O)(/C=C/c1ccc(C(CC)(CC)c2ccc(OC[C@H]3CCCC(=O)O3)c(C)c2)cc1C)CC [Example 190, 6(R)-(4-{1-Ethyl-1-[4-((E)-3-ethyl-3-hydroxy-pent-1-enyl)-3-methyl-phenyl]-propyl}-2-methyl-phenoxymethyl)-tetrahydro-pyran-2-one]",22
21,"CCC(CC)(c1ccc(C#CCCCC(=O)O)c(C)c1)c1ccc(C#CC(O)(C(F)(F)F)C(F)(F)F)c(C)c1 [Example 192, 6-(4-{1-Ethyl-1-[3-methyl-4-(4,4,4-trifluoro-3-hydroxy-3-trifluoromethyl-but-1-ynyl)-phenyl]-propyl}-2-methyl-phenyl)-hex-5-ynoic acid]",292
22,"CCC(O)(/C=C/c1ccc(C(CC)(CC)c2ccc(OCC(=O)NCCN)c(C)c2)cc1C)CC [Example 195, (E)-N-(2-Amino-ethyl)-2-(4-{1-ethyl-1-[4-(3-ethyl-3-hydroxy-pent-1-enyl)-3-methyl-phenyl]-propyl}-2-methyl-phenoxy)-acetamide]",135
23,"CCC(O)(/C=C/c1ccc(C(CC)(CC)c2ccc(OCC(=O)CCC(=O)O)c(C)c2)cc1C)CC [Example 198, (E)-5-(4-{1-Ethyl-1-[4-(3-ethyl-3-hydroxy-pent-1-enyl)-3-methyl-phenyl]-propyl}-2-methyl-phenoxy)-4-oxo-pentanoic acid]",271
